Source: US20230181746A1, “BENZOYLHYDRAZIDE-DERIVED HDAC DEGRADERS AS THERAPEUTICS FOR TREATING CANCER AND OTHER HUMAN DISEASES” (University of Florida Research Foundation, Inc., priority 2020, published 2023)

Tests used:
Assay type in all cases: cell-based
[1] = tested on: breast cancer cell lines MCF7, T47D, MDA-MB-468, HCC-1143 and BT479; assay: Clonogenic growth assay, breast cancer cell lines; settings: compared with XZ9002-NC
Procedure: FIGS. 8A-8B show the cellular activity of XZ9002. […] Cells were lysed for WB. The relative HDAC3 protein level in each sample is shown. […] The indicated BC cell lines were exposed to DMSO, XZ9002, or XZ9002-NC at the indicated concentrations. Colonies were fixed and stained.
(§1) Cell lines were obtained from ATCC and subsequently authenticated. Cells were cultured with DMEM supplemented with 10% bovine calf serum, penicillin to 10 units/mL, and streptomycin to 10 μg/mL. For viability assays, 5,000 cells/well were seeded in 96-well plates. Compounds at a specified concentration or DMSO were added 24 h later. Viability assays were performed 72 h after compound addition using the CellTiter-Glo reagents (Promega). For colony formation assay, cells (˜1,000 cells/well) were seeded in a 24-well plate in quadruplicates. At 24 h after seeding, DMSO, XZ9002, or XZ9002-NC were added at a specified concentration. Medium was replaced with freshly prepared medium containing DMSO, XZ9002 or XZ9002-NC every five days until visible colonies appeared, typically in 15 to 20 days after initial cell seeding. Cells were fixed with 4% paraformaldehyde for 15 min and stained with 2% methylene blue in 20% ethanol for 30 min to 1 h. The cells were washed twice with distilled water and dried in air. For western blotting, cell cultures were exposed to compounds as indicated in relevant figures. […]

[2] = tested on: MDA-MB-468 cells; assay: Cell viability assay (CellTiter-Glo); settings: MDA-MB-468, 72 h; similar trends in MDA-MB-231 and T47D cells
Procedure: MDA-MB-468, MDA-MB-231, and T47D cells were treated with the indicated compounds at different concentrations for 72 h. Cell viability was assessed with CellTiter-Glo® reagents.
as §1, with “figures. Medium was removed from culture plate, and 1 x passive lysis buffer was then added, the plates were frozen at −80° C. overnight and thawed at room temperature. The total cell lysates were mixed with a one fifth volume of 6x SDS sample buffer, heated at 95° C. for 5 min and cooled on ice. The lysates were cleared by centrifugation and then subjected to SDS-PAGE and western blotting essentially as described.” for “figures.”

[3] = molecular target: T1, HDAC6 (Homo sapiens, UniProt Q9UBN7); assay: HDAC6 protein level in MDA-MB-468 cells, Western blot; settings: 14 h
T1 construct: endogenous in cells; host or cells: MDA-MB-468
T1 sequence (Q9UBN7 1-1215): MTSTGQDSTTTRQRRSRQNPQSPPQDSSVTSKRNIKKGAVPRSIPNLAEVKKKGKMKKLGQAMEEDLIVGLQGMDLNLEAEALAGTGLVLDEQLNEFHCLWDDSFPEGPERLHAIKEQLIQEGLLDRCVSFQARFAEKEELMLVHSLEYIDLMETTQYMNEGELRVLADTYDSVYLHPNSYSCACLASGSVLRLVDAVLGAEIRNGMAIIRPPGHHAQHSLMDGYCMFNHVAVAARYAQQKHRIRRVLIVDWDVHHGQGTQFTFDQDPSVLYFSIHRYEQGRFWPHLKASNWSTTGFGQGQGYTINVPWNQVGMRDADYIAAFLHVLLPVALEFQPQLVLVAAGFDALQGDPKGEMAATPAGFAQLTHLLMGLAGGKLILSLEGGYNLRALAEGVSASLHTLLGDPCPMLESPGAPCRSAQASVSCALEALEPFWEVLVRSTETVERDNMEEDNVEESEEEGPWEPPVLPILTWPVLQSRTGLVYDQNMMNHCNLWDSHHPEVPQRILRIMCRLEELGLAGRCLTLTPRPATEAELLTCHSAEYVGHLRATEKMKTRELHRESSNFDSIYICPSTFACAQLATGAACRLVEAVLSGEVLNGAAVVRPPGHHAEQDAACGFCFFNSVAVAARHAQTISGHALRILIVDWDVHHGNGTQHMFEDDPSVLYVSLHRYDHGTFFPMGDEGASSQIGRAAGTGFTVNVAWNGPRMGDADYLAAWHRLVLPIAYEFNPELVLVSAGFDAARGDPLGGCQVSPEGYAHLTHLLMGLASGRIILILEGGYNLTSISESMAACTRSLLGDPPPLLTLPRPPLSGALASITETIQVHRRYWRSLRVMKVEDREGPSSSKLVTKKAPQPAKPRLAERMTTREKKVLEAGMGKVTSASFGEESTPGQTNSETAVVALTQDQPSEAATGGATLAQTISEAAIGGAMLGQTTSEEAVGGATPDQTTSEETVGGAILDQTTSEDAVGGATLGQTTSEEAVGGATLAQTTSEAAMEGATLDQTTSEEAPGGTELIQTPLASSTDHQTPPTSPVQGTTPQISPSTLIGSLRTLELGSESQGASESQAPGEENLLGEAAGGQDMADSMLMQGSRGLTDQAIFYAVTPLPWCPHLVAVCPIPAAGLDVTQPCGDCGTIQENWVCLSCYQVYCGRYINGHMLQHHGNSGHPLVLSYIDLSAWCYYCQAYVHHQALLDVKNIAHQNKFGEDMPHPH
Procedure: FIG. 3A: Western blot showing HDAC protein levels in MDA-MB-468 cells treated with the indicated concentration of XZ9002 for 14 h. FIG. 3B: pretreatment with 1 μM MG132, or 10 μM VHL032 for 1 h blocked the degradation of HDAC3 by XZ9002 {125 nM}. […] NC: XZ9002-NC. FIG. 3C: time-dependent experiment in MDA-MB-468 cells after treatment with 125 nM XZ9002 at the indicated time points. FIG. 3D: MDA-MB-468 cells were incubated with 125 nM of XZ9002 for 14 h followed by drug washout, and incubation of the cells in drug-free medium for an additional time. Data are presented as representative figures of two independent experiments.
Cell lines were obtained from ATCC and subsequently authenticated. Cells were cultured with DMEM supplemented with 10% bovine calf serum, penicillin to 10 units/mL, and streptomycin to 10 μg/mL. For viability assays, 5,000 cells/well were seeded in 96-well plates. Compounds at a specified concentration or DMSO were added 24 h later. Viability assays were performed 72 h after compound addition using the CellTiter-Glo reagents (Promega). For colony formation assay, cells (˜1,000 cells/well) were seeded in a 24-well plate in quadruplicates. At 24 h after seeding, DMSO, XZ9002, or XZ9002-NC were added at a specified concentration. […]

[4] = tested on: NCI-60 panel of 60 cancer lines; assay: NCI-60 cell line panel proliferation; settings: five doses; leukemia, NSCLC, colon, CNS, melanoma, ovarian, renal, prostate and breast cancer lines
Procedure: The indicated cancer cell lines were treated with XZ9002 at five different doses. The percentage growth relative to the cell numbers before compound exposure was plotted against the XZ9002 concentrations in the log scale.

CCCNNC(=O)c1ccc(-c2ccc(NC(=O)CCCCCCC(=O)N[C@H](C(=O)N3C[C@H](O)C[C@H]3C(=O)N[C@@H](C)c3ccc(-c4scnc4C)cc3)C(C)(C)C)cc2)cc1 [XZ9002, N^1—((S)-1-((2S,4R)-4-hydroxy-2-(((S)-1-(4-(4-methylthiazol-5-yl)phenyl)ethyl)carbamoyl)pyrrolidin-1-yl)-3,3-dimethyl-1-oxobutan-2-yl)-N^5-(4′-(2-propylhydrazine-1-carbonyl)-[1,1′-biphenyl]-4-yl)octanediamide]
suppression of colony formation [1]: more potent to suppress colony formation
antiproliferative activity (in words) [2]: more potent in killing cancer cells
change in HDAC6 protein level [3]: no significant changes
inhibition of proliferation [4]: effectively inhibits the proliferation
